Data set [1] in a line: Cell viability assay (EZ-Cytox), cytotoxicity. Format: cell-based. The note with it: human, HepAD38 cells; for viability at 65 h, 100 µM: read-out: Cytotoxicity % Livability (@100 μM). The protocol: HepAD38 cells were cultured for 2 days in Dulbecco's Modified Eagle's medium (Welgene, LM001-05) supplemented with 10% FBS without tetracycline. […] After 65 hours of treatment, viability was measured using EZ-Cytox cell viability assay kit (Daeil Lab Service) according to the manufacturer's instructions. The absorbance was measured at 450 nm using a spectrophotometer (Spark, Tecan).

Data set [2] has as its system intracellular HBV DNA. Kind of data set: Real-time PCR for intracellular HBV DNA in HepAD38 cells. Conditions: Hepatitis B virus, HePAD38, 65 h, 65 hours treatment. Format: cell-based. (In general: Quantitative PCR measures a nucleic acid by following its amplification.)

Drawing on patent publication US20250009742A1 (priority 2021, published 2025), this text covers CC50, IC50 and viability for 18 compounds.

`CC(C)(O)c1ccc(N(Cc2n[nH]c3c2CCCO3)C(=O)Nc2ccc(F)c(Cl)c2)cn1` [Example 110, 3-(3-chloro-4-fluorophenyl)-1-(6-(2-hydroxypropan-2-yl)pyridin-3-yl)-1-((1,4,5,6-tetrahydropyrano[2,3-c]pyrazol-3-yl)methyl)urea]: in data set [1], the half-maximal cytotoxic concentration (CC50) at 65 h is > 100 µM. The IC50 in data set [2] was > 1100 nM.

Take `COc1cncc(N(Cc2cc(C(F)F)[nH]n2)C(=O)Nc2ccc(F)c(Cl)c2)c1` [Example 77, 3-(3-chloro-4-fluorophenyl)-1-((5-(difluoromethyl)-1H-pyrazol-3-yl)methyl)-1-(5-methoxypyridin-3-yl)urea]: in data set [1], the CC50 at 65 h was > 100 µM and the viability at 65 h, 100 µM stood at 86.7%. Moreover, in data set [2], the midpoint of inhibition, the IC50, lay at 36 nM.

`COc1ncc(N(Cc2cc(C(F)(F)F)[nH]n2)C(=O)NC23CC(Cl)(C2)C3)cn1` [Example 6, 3-(3-chlorobicyclo[1.1.1]pentan-1-yl)-1-(2-methoxypyrimidin-5-yl)-1-((5-(trifluoromethyl)-1H-pyrazol-3-yl)methyl)urea]: in data set [1], the 50% cytotoxic concentration (CC50) at 65 h is > 100 µM and the viability at 65 h, 100 µM stood at 100%. For the same compound, the IC50 in data set [2] was > 1100 nM.

Consider `COc1ncc(N(Cc2cc(C(F)(F)F)[nH]n2)C(=O)Nc2cnc(F)nc2)cn1` [Example 186, 3-(2-fluoropyrimidin-5-yl)-1-(2-methoxypyrimidin-5-yl)-1-((5-(trifluoromethyl)-1H-pyrazol-3-yl)methyl)urea], for which, in data set [1], the 50% cytotoxic concentration (CC50) at 65 h was > 100 µM and the viability at 65 h, 100 µM stood at 86.4%. For the same compound, the IC50 in data set [2] was > 1100 nM.

Regarding `COc1cc(N(Cc2n[nH]c3c2OCCO3)C(=O)Nc2ccc(F)c(Cl)c2)ccn1` [Example 71, 3-(3-chloro-4-fluorophenyl)-1-((5,6-dihydro-1H-[1,4]dioxino[2,3-c]pyrazol-3-yl)methyl)-1-(2-methoxypyridin-4-yl)urea], the CC50 at 65 h in data set [1] is > 100 µM. In addition, the midpoint of inhibition in data set [2], the IC50, lay at 76 nM.

As for `COc1ncc(N(Cc2cc(C(F)(F)F)[nH]n2)C(=O)Nc2ccc(F)c(Cl)c2)cn1` [Example 80, 3-(3-chloro-4-fluorophenyl)-1-(2-methoxypyrimidin-5-yl)-1-((5-(trifluoromethyl)-1H-pyrazol-3-yl)methyl)urea], in data set [1], half-maximal cytotoxicity (CC50 at 65 h) was put at 88.4 µM and the viability at 65 h, 100 µM amounted to 21.4%. Besides, the midpoint of inhibition in data set [2], the IC50, lay at 19 nM.

For `N#Cc1ccc(N(Cc2cc(C(F)(F)F)[nH]n2)C(=O)Nc2ccc(F)c(Cl)c2)cn1` [Example 130, 3-(3-chloro-4-fluorophenyl)-1-(6-cyanopyridin-3-yl)-1-((5-(trifluoromethyl)-1H-pyrazol-3-yl)methyl)urea], in data set [1], the half-maximal cytotoxic concentration (CC50) at 65 h is > 100 µM and the viability at 65 h, 100 µM is 68%. Further, it took 65 nM to reach half-maximal inhibition in data set [2] (IC50).

Turning to `COC12CC(N(Cc3cc(C(F)(F)F)[nH]n3)C(=O)Nc3cccc(C(F)F)c3)(C1)C2` [Example 181, 3-(3-(difluoromethyl)phenyl)-1-(3-methoxybicyclo[1.1.1]pentan-1-yl)-1-((5-(trifluoromethyl)-1H-pyrazol-3-yl)methyl)urea], in data set [1], the CC50 at 65 h was > 100 µM and the viability at 65 h, 100 µM was 64.9%. In data set [2], this compound yielded an IC50 of 130 nM.

In the case of `Cn1cc(N(Cc2n[nH]c3c2CCCC3)C(=O)Nc2ccc(F)c(Cl)c2)cn1` [Example 24, 3-(3-chloro-4-fluorophenyl)-1-(1-methyl-1H-pyrazol-4-yl)-1-((4,5,6,7-tetrahydro-1H-indazol-3-yl)methyl)urea], in data set [1], the CC50 at 65 h was > 100 µM and the viability at 65 h, 100 µM was 53.4%. In data set [2], this compound came in with a 50% inhibitory concentration (IC50) of 160 nM.

Regarding `COc1ncc(N(Cc2cc(C(F)(F)F)[nH]n2)C(=O)Nc2cccc(C(F)(F)F)n2)cn1` [Example 225, 1-(2-methoxypyrimidin-5-yl)-1-((5-(trifluoromethyl)-1H-pyrazol-3-yl)methyl)-3-(6-(trifluoromethyl)pyridin-2-yl)urea], in data set [1], the 50% cytotoxic concentration (CC50) at 65 h was > 100 µM and the viability at 65 h, 100 µM is 105%. Moreover, in data set [2], the concentration for half-maximal inhibition (IC50) was found to be 210 nM.

Turning to `CS(=O)(=O)Nc1ccc(N(Cc2n[nH]c3c2CCCO3)C(=O)Nc2ccc(F)c(Cl)c2)cn1` [Example 18, N-(5-(3-(3-chloro-4-fluorophenyl)-1-((1,4,5,6-tetrahydropyrano[2,3-c]pyrazol-3-yl)methyl)ureido)pyridin-2-yl)methanesulfonamide], the 50% cytotoxic concentration (CC50) at 65 h in data set [1] was > 100 µM. In addition, in data set [2], the half-inhibitory concentration (IC50) is > 1100 nM.

For `COc1ncc(N(Cc2n[nH]c(C(F)F)c2C(C)(C)O)C(=O)Nc2ccc(F)c(C(F)F)c2)cn1` [Example 198, 1-((5-(difluoromethyl)-4-(2-hydroxypropan-2-yl)-1H-pyrazol-3-yl)methyl)-3-(3-(difluoromethyl)-4-fluorophenyl)-1-(2-methoxypyrimidin-5-yl)urea], in data set [1], the 50% cytotoxic concentration (CC50) at 65 h was > 100 µM and the viability at 65 h, 100 µM was 102%. In data set [2], the IC50 is > 1100 nM.

In the case of `COc1cc(N(Cc2cc(C(F)(F)F)[nH]n2)C(=O)Nc2ccc(F)c(C#N)c2)cnn1` [Example 163, 3-(3-cyano-4-fluorophenyl)-1-(6-methoxypyridazin-4-yl)-1-((5-(trifluoromethyl)-1H-pyrazol-3-yl)methyl)urea], in data set [1], the 50% cytotoxic concentration (CC50) at 65 h was > 100 µM and the viability at 65 h, 100 µM amounted to 99%. Also, in data set [2], the IC50 turned out to be 7 nM.

Take `Cn1ccc(N(Cc2n[nH]c3c2CCCO3)C(=O)Nc2ccc(F)c(Cl)c2)n1` [Example 25, 3-(3-chloro-4-fluorophenyl)-1-(1-methyl-1H-pyrazol-3-yl)-1-((1,4,5,6-tetrahydropyrano[2,3-c]pyrazol-3-yl)methyl)urea]: in data set [1], the 50% cytotoxic concentration (CC50) at 65 h was > 100 µM and the viability at 65 h, 100 µM amounted to 100%. The half-inhibitory concentration (IC50) in data set [2] is > 1100 nM.

On to `COc1ccc(N(Cc2cc(C(F)(F)F)[nH]n2)C(=O)Nc2ccc(F)c(Cl)c2)nn1` [Example 96, 3-(3-chloro-4-fluorophenyl)-1-(6-methoxypyridazin-3-yl)-1-((5-(trifluoromethyl)-1H-pyrazol-3-yl)methyl)urea], for which, in data set [1], the half-maximal cytotoxic concentration (CC50) at 65 h was > 100 µM and the viability at 65 h, 100 µM stood at 93.4%. Also, the IC50 in data set [2] was > 1100 nM.

On to `COc1ncc(N(Cc2n[nH]c(C(F)(F)F)c2CC(C)O)C(=O)Nc2ccc(F)c(C(F)F)c2)cn1` (stereo not drawn) [Example 199, 3-(3-(difluoromethyl)-4-fluorophenyl)-1-((4-(2-hydroxypropyl)-5-(trifluoromethyl)-1H-pyrazol-3-yl)methyl)-1-(2-methoxypyrimidin-5-yl)urea], for which, in data set [1], the CC50 at 65 h was > 100 µM and the viability at 65 h, 100 µM amounted to 95.7%. For the same compound, the IC50 in data set [2] was 750 nM.

For `COc1ncc(N(Cc2cc(C(F)(F)F)[nH]n2)C(=O)Nc2cc(N(C)C)c(F)c(C#N)n2)cn1` [Example 164, 3-(6-cyano-4-(dimethylamino)-5-fluoropyridin-2-yl)-1-(2-methoxypyrimidin-5-yl)-1-((5-(trifluoromethyl)-1H-pyrazol-3-yl)methyl)urea], in data set [1], the 50% cytotoxic concentration (CC50) at 65 h was > 100 µM and the viability at 65 h, 100 µM amounted to 100%. Besides, the IC50 in data set [2] was > 1100 nM.

For the compound `COc1ncc(N(Cc2cc(C#N)[nH]n2)C(=O)Nc2cccc(C(F)F)c2)cn1` [Example 180, 1-((5-cyano-1H-pyrazol-3-yl)methyl)-3-(3-(difluoromethyl)phenyl)-1-(2-methoxypyrimidin-5-yl)urea], in data set [1], the cytotoxic concentration (CC50) at 65 h is > 100 µM and the viability at 65 h, 100 µM stood at 88.1%. Besides, inhibition in data set [2] was half-maximal at 64 nM (IC50).

For orientation: CC50 means the concentration that lowers cell viability or growth by half. A high value points to better tolerance by the cells. For orientation: IC50 means the concentration that inhibits the measured activity by half. Higher therefore signals lower potency.
